# How the values were obtained:
# Assay in all cases: 3' UTR reporter interaction score (median-centred robust z-score of log2 firefly/Renilla activity); higher = less repression of the 3' UTR reporter
# Conditions in all cases: HEK293T; 48 h
# [1] = system: PHF6
# Procedure, shortened: (§1)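 For the interaction score, the firefly/Renilla ratio was log-transformed, expressed as a robust z-score per plate using median and median absolute deviation, and median-centred per miRNA; a more negative score indicates interaction. These scores come from at least two independent screens, averaged. Each screen used HEK293T cells at 10,000/well in 96-well plates, co-transfected with DharmaFECT Duo carrying 100 ng luc2P 3' UTR reporter, 20 ng pRL-TK and 2.5 pmol miRNA mimic, with luciferase read at 48 h.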
# [2] = system: RB1
# Procedure, shortened: as §1
# [3] = system: MYB
# Procedure, shortened: as §1
# [4] = system: NOTCH1
# Procedure, shortened: as §1
# [5] = system: FBXW7
# Procedure, shortened: as §1
# [6] = system: ZEB2
# Procedure, shortened: as §1
# [7] = system: MYT1L
# Procedure, shortened: as §1
# [8] = system: HRAS
# Procedure, shortened: as §1
# [9] = system: TP53
# Procedure, shortened: as §1
# [10] = system: PHOX2B
# Procedure, shortened: as §1
# [11] = system: EZH2
# Procedure, shortened: as §1
# [12] = system: MYCN
# Procedure, shortened: as §1
# [13] = system: MYC
# Procedure, shortened: as §1
# [14] = system: BRCA2
# Procedure, shortened: as §1
Sequence,3' UTR reporter interaction score [1],3' UTR reporter interaction score [2],3' UTR reporter interaction score [3],3' UTR reporter interaction score [4],3' UTR reporter interaction score [5],3' UTR reporter interaction score [6],3' UTR reporter interaction score [7],3' UTR reporter interaction score [8],3' UTR reporter interaction score [9],3' UTR reporter interaction score [10],3' UTR reporter interaction score [11],3' UTR reporter interaction score [12],3' UTR reporter interaction score [13],3' UTR reporter interaction score [14]
GAUUGCUCUGCGUGCGGAAUCGAC,0.0123,0.524,-0.474,-0.0878,-0.34,-0.205,-1.1,-0.851,-0.352,0.972,0.471,-0.19,-2.18,0.00588
UUGGUCCCCUUCAACCAGCUA,-1.46,-0.167,-0.0299,-0.864,1.01,-0.0455,0.425,1.24,-0.692,-0.834,1.2,0.0097,0.62,-0.159
CAAAGAGGAAGGUCCCAUUAC,-0.348,-0.878,0.328,-0.106,0.456,1.21,-0.262,0.586,-1.21,-0.488,-0.46,0.419,-0.255,-0.346
GUUGGAGGAUGAAAGUACGGAGUGAU,0.571,0.55,0.331,-0.207,1.07,0.0694,-0.433,-0.155,-1.24,1.82,0.25,0.4,-0.154,-1.61
GUGCCGCCAUCUUUUGAGUGU,1.8,0.47,0.102,-0.278,-3.5,-1.72,-0.378,-0.278,0.183,-0.654,1.03,0.415,1.02,-0.313
UCUACAAAGGGAAGCCCUUUCUG,0.0225,0.712,0.56,-0.427,-0.547,-0.71,0.66,-0.0822,-0.365,-0.778,0.229,0.12,-0.127,0.423
CUACAAAGGGAAGCACUUUCUC,0.716,0.032,0.666,0.148,-0.7,-3.59,0.757,-1.25,-1.31,1.76,0.77,-0.614,0.411,-0.805
UUUAGGAUAAGCUUGACUUUUG,-0.597,-0.349,0.0477,-0.42,1.12,-2.69,0.523,-0.108,0.0255,-0.958,0.299,-0.873,-0.602,0.711
UGACAACUAUGGAUGAGCUCU,-0.469,-2.61,0.977,-0.339,0.175,0.125,0.836,-0.056,0.025,-0.766,0.197,0.478,0.174,-0.499
CAUUGCACUUGUCUCGGUCUGA,-1.24,0.825,-0.142,-0.145,-0.0954,-2.69,0.397,-0.416,-0.48,-0.664,0.125,-0.0953,0.278,0.658
UUAUCAGAAUCUCCAGGGGUAC,0.08,-0.955,1.26,0.0518,0.189,0.799,-0.147,0.803,-0.646,-1.55,-0.893,-0.164,1.44,0.769
UAAUGCCCCUAAAAAUCCUUAU,2.31,-0.537,-1.05,-0.347,1.16,-2.81,0.18,-0.275,-0.124,0.54,0.868,-0.732,0.136,1.14
UAUGUGCCUUUGGACUACAUCG,0.707,0.319,0.663,0.00167,0.444,0.0793,-1.09,-0.0556,-0.404,-3.33,-0.568,0,0.403,-1.13
CAAAGAAUUCUCCUUUUGGGCUU,-0.267,1.54,0.952,1.33,-0.499,-0.283,0.219,0.0982,-0.294,-0.413,-0.313,0.453,-0.381,-0.174
CACCCGUAGAACCGACCUUGCG,-0.967,-0.00577,0.655,-0.125,0.377,-1.09,-0.00069,0.575,-0.17,-3.87,-0.866,-0.0242,0.596,0.615
AAAGUGCCUCCUUUUAGAGUGU,1.02,-0.21,-0.416,0.0165,0.988,0.00481,0.764,0.107,-0.0121,-1.07,-0.239,1.27,0.329,-0.0588
UUUGGCAAUGGUAGAACUCACA,-0.697,0.469,-1.17,-0.441,-2.86,0.837,0.203,-0.139,0.0472,0.438,0.322,-0.0764,-0.026,-0.0444
AGAUCGACCGUGUUAUAUUCGC,0.689,0.976,-1.19,0.965,-0.751,-1.03,-1.38,0.57,-2.1,-0.0818,0.0389,0.592,0.022,0.451

# From the supplement of paper PMC5844555
